pKd: −log10 of the molar value. *1 amine or outer side, *2 acyl side, *3 side chain or, on linkers, in order; H or OH if unused. Where a SMILES comes first, the peptide text is derived from it. [ ]: non-standard residue; d: D form. The star is where a group is joined. X1 = O=C([C@H](CCc1cn(C2CCC(OC3O[C@H](CO[C@H]4O[C@H](CO[C@H]5O[C@H](CO)[C@@H](O)[C@H](O)[C@@H]5O[C@H]5O[C@H](CO)[C@@H](O)[C@H](O)[C@@H]5O)[C@@H](O)[C@H](O[C@H]5O[C@H](CO)[C@@H](O)[C@H](O)[C@@H]5O[C@H]5O[C@H](CO)[C@@H](O)[C@H](O)[C@@H]5O)[C@@H]4O)[C@@H](O)[C@H](O[C@H]4O[C@H](CO)[C@@H](O)[C@H](O)[C@@H]4O[C@H]4O[C@H](CO)[C@@H](O)[C@H](O)[C@@H]4O[C@H]4O[C@H](CO)[C@@H](O)[C@H](O)[C@@H]4O)[C@@H]3O)CC2)nn1)N[*:1])[*:2]; For = O=C*
Test system: HIV broadly neutralizing antibody 2G12
Assay: Radioactive 2G12-glycopeptide binding assay with protein G magnetic beads (binding curve and KD determination)
Protocol: The sequences were obtained by cloning non-selected library DNA. […] FIG. 9B is an SDS-PAGE analysis of the click reaction of the non-selected peptides. Both peptides were transcribed and translated from PCR-amplified DNA in Pure System that contains 0.02 mg/mL T7 RNA polymerase and additional 1 mM each NTP. The peptides were labeled with 3H-histidine and the bands were visualized by fluorography.
For round 10 winners, 0.12-0.2 nM radioactive glycopeptides were incubated with 0, 0.25, 0.5, 1, 2, 4, 8, 16, 32 or 64 nM 2G12 in 40 μL of selection buffer at room temperature for 1 h. Then, the solution was added to 0.12 mg of pre-equilibrated Dynabeads Protein G and tumbled at room temperature for 30 min. The supernatant was removed and the beads were washed with 3×40 μL of selection buffer. The radioactivities of the supernatant and wash solutions were measured by liquid scintillation counting as unbound fractions. […] The beads were resuspended in 40 μL of selection buffer, heated at 70° C. for 30 min to elute the bound glycopeptides, chilled on ice for 5 min, and tumbled at room temperature for 10 min. The supernatant was removed, and the beads were washed with 40 μL of selection buffer and resuspended in 40 μL of selection buffer. The radioactivities of these solutions and suspensions were measured by liquid scintillation counting separately and the values were combined as apparent bound fractions. […] All experiments were done at least in triplicate. KDs were calculated as described in the footnote of Table 4 (below).

[1] = Table 6 mutants/truncations, radioactive binding assay

How did the “Fmax [%]” value [1] turn out when CC[C@H](C)[C@H](NC(=O)[C@H](CCCNC(=N)N)NC(=O)[C@H](CCCNC(=N)N)NC(=O)CNC(=O)[C@H](CC(=O)O)NC(=O)[C@H](CC(N)=O)NC(=O)[C@H](CC(C)C)NC(=O)[C@@H](NC(=O)[C@H](CCc1cn(C2CCC(OC3O[C@H](CO[C@H]4O[C@H](CO[C@H]5O[C@H](CO)[C@@H](O)[C@H](O)[C@@H]5O[C@H]5O[C@H](CO)[C@@H](O)[C@H](O)[C@@H]5O)[C@@H](O)[C@H](O[C@H]5O[C@H](CO)[C@@H](O)[C@H](O)[C@@H]5O[C@H]5O[C@H](CO)[C@@H](O)[C@H](O)[C@@H]5O)[C@@H]4O)[C@@H](O)[C@H](O[C@H]4O[C@H](CO)[C@@H](O)[C@H](O)[C@@H]4O[C@H]4O[C@H](CO)[C@@H](O)[C@H](O)[C@@H]4O[C@H]4O[C@H](CO)[C@@H](O)[C@H](O)[C@@H]4O)[C@@H]3O)CC2)nn1)NC=O)C(C)C)C(=O)N[C@H](C(=O)N[C@@H](CCC(N)=O)C(=O)N[C@@H](CCc1cn(C2CCC(OC3O[C@H](CO[C@H]4O[C@H](CO[C@H]5O[C@H](CO)[C@@H](O)[C@H](O)[C@@H]5O[C@H]5O[C@H](CO)[C@@H](O)[C@H](O)[C@@H]5O)[C@@H](O)[C@H](O[C@H]5O[C@H](CO)[C@@H](O)[C@H](O)[C@@H]5O[C@H]5O[C@H](CO)[C@@H](O)[C@H](O)[C@@H]5O)[C@@H]4O)[C@@H](O)[C@H](O[C@H]4O[C@H](CO)[C@@H](O)[C@H](O)[C@@H]4O[C@H]4O[C@H](CO)[C@@H](O)[C@H](O)[C@@H]4O[C@H]4O[C@H](CO)[C@@H](O)[C@H](O)[C@@H]4O)[C@@H]3O)CC2)nn1)C(=O)N[C@@H](CO)C(=O)N[C@@H](CS)C(=O)N[C@@H](CCC(=O)O)C(=O)N[C@@H](CC(C)C)C(=O)N1CCC[C@H]1C(=O)N[C@@H](CCc1cn(C2CCC(OC3O[C@H](CO[C@H]4O[C@H](CO[C@H]5O[C@H](CO)[C@@H](O)[C@H](O)[C@@H]5O[C@H]5O[C@H](CO)[C@@H](O)[C@H](O)[C@@H]5O)[C@@H](O)[C@H](O[C@H]5O[C@H](CO)[C@@H](O)[C@H](O)[C@@H]5O[C@H]5O[C@H](CO)[C@@H](O)[C@H](O)[C@@H]5O)[C@@H]4O)[C@@H](O)[C@H](O[C@H]4O[C@H](CO)[C@@H](O)[C@H](O)[C@@H]4O[C@H]4O[C@H](CO)[C@@H](O)[C@H](O)[C@@H]4O[C@H]4O[C@H](CO)[C@@H](O)[C@H](O)[C@@H]4O)[C@@H]3O)CC2)nn1)C(=O)N[C@H](C(=O)N[C@@H](CCCNC(=N)N)C(=O)N[C@@H](CCCNC(=N)N)C(=O)N[C@@H](CO)C(=O)NCC(=O)N[C@@H](CO)C(=O)NCC(=O)N[C@@H](CO)C(=O)N[C@@H](CC(C)C)C(=O)NCC(=O)N[C@@H](Cc1c[nH]cn1)C(=O)N[C@@H](Cc1c[nH]cn1)C(=O)N[C@@H](Cc1c[nH]cn1)C(=O)N[C@@H](Cc1c[nH]cn1)C(=O)N[C@@H](Cc1c[nH]cn1)C(=O)N[C@@H](Cc1c[nH]cn1)C(=O)N[C@@H](CCCNC(=N)N)C(=O)N[C@@H](CC(=O)O)C(=O)N[C@@H](Cc1ccc(O)cc1)C(=O)N[C@@H](CCCCN)C(=O)N[C@@H](CC(=O)O)C(=O)N[C@@H](CC(=O)O)C(=O)N[C@@H](CC(=O)O)C(=O)N[C@@H](CC(=O)O)C(=O)N[C@@H](CCCCN)C(=O)O)C(C)C)C(C)C (some centres unmarked) [Clone 10F5-Δ11, XVLNDGRRIVQXSCELPXVRRS] was run?
Its value is 17%.

What about the pKd [1] of the same compound?
Its pKd is less than 6.70.

Which results are given for CC[C@H](C)[C@H](NC(=O)[C@H](CO)NC(=O)[C@H](CCCNC(=N)N)NC(=O)[C@H](CCc1cn(C2CCC(OC3O[C@H](CO[C@H]4O[C@H](CO[C@H]5O[C@H](CO)[C@@H](O)[C@H](O)[C@@H]5O[C@H]5O[C@H](CO)[C@@H](O)[C@H](O)[C@@H]5O)[C@@H](O)[C@H](O[C@H]5O[C@H](CO)[C@@H](O)[C@H](O)[C@@H]5O[C@H]5O[C@H](CO)[C@@H](O)[C@H](O)[C@@H]5O)[C@@H]4O)[C@@H](O)[C@H](O[C@H]4O[C@H](CO)[C@@H](O)[C@H](O)[C@@H]4O[C@H]4O[C@H](CO)[C@@H](O)[C@H](O)[C@@H]4O[C@H]4O[C@H](CO)[C@@H](O)[C@H](O)[C@@H]4O)[C@@H]3O)CC2)nn1)NC=O)C(=O)N1CCC[C@H]1C(=O)N[C@@H](Cc1c[nH]c2ccccc12)C(=O)N[C@@H](Cc1ccc(O)cc1)C(=O)N[C@H](C(=O)N[C@@H](Cc1ccc(O)cc1)C(=O)N[C@@H](CCCNC(=N)N)C(=O)N[C@@H](Cc1c[nH]c2ccccc12)C(=O)N[C@@H](CC(C)C)C(=O)N1CCC[C@H]1C(=O)N[C@@H](CC(N)=O)C(=O)NCC(=O)N[C@@H](CO)C(=O)NCC(=O)N[C@@H](CO)C(=O)N[C@@H](CC(C)C)C(=O)NCC(=O)N[C@@H](Cc1c[nH]cn1)C(=O)N[C@@H](Cc1c[nH]cn1)C(=O)N[C@@H](Cc1c[nH]cn1)C(=O)N[C@@H](Cc1c[nH]cn1)C(=O)N[C@@H](Cc1c[nH]cn1)C(=O)N[C@@H](Cc1c[nH]cn1)C(=O)N[C@@H](CCCNC(=N)N)C(=O)N[C@@H](CC(=O)O)C(=O)N[C@@H](Cc1ccc(O)cc1)C(=O)N[C@@H](CCCCN)C(=O)N[C@@H](CC(=O)O)C(=O)N[C@@H](CC(=O)O)C(=O)N[C@@H](CC(=O)O)C(=O)N[C@@H](CC(=O)O)C(=O)N[C@@H](CCCCN)C(=O)O)[C@@H](C)O (some centres unmarked) [Clone 10V1-Δ19, XRSIPWYTYRWLPN] (For-[X1]RSIPWYTYRWLPNGSGSLGHHHHHHRDYKDDDDK-OH; C-terminus assumed)?
Fmax [%] [1]: 20%; 2G12 binding after truncation (truncated clones): tight binding

Which “Fmax [%]” value [1] does the source give for “For-[X1]PNCITQQDVR[X1]TSIPYTYTWPGSGSLGHHHHHHRDYKDDDDK-OH [Clone 10F3-Δ11, XPNCITQQDVRXTSIPYTYTWP]” here?
Its value is 32%.

For “XDTLHLKQIGGXPNSITQQDVRXTSIPYTYTWP [Clone 10F3-C15S]”, which “Fmax [%]” value [1] is on record?
Its value is 63%.

What about the pKd [1] of the same compound?
The pKd was 8.54.

“XYKNIPSTTXNLYSKPXATVTTLKCKLNGNRIS [Clone 12G]” was tested. Which pKd (Table 4, radiolabeled ribosomally translated glycopeptide, varied 2G12, room temperature, ± standard error of curve fit) did it give?
Its pKd is less than 6.89.

From patent publication US11732256B2, “Multivalent glycopeptides that tightly bind to target proteins” (Brandeis University, priority 2013, dated 2023)
